This note sets out measurements from patent publication US10654867B2 (Genentech, Inc., priority 2016, dated 2020).

For this experiment, the target named is T1, estrogen receptor alpha (ESR1) in MCF7 breast cancer cells (Homo sapiens, UniProt P03372).
T1 sequence (P03372 1-595): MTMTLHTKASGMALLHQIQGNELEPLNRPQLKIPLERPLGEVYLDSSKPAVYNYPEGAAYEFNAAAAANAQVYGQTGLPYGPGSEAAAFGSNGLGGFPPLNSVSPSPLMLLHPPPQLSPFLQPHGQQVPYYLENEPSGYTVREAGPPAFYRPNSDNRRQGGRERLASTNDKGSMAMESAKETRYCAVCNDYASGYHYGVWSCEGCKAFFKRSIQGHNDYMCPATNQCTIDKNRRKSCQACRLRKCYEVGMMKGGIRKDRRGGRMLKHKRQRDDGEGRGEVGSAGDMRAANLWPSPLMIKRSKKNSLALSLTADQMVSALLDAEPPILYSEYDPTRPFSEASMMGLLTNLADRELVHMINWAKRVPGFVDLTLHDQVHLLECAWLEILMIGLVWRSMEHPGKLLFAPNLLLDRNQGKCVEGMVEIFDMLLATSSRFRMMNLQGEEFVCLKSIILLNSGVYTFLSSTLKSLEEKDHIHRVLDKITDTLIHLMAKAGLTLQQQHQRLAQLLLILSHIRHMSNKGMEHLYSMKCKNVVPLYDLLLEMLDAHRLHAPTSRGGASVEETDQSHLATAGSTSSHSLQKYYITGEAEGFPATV
Nature of the experiment: Breast Cancer Cell ERa High Content Fluorescence Imaging Degradation Assay (ER-alpha MCF7 HCS). Further details: endogenous in cells; host or cells: MCF7 breast cancer cells. To be noted: 4 hours, plateau of the maximal effect, DMSO and fulvestrant define 0% and 100% change in ESR1, Table 1a. It counts as cell-based. The protocol: All of the exemplary Formula I, II, and III compounds in Tables 1a and 1b were made and characterized by LCMS [M+H]^+ (liquid chromatography mass spectroscopy) with detection of parent ion. All of the exemplary Formula I, II, and III compounds in Tables 1a and 1b were tested for binding to ERa (Estrogen Receptor alpha) and biological activity according to the assays, protocols, and procedures of Examples 901-907. ER-alpha MCF7 HCS Sinf (%) values in Tables 1a and 1b were measured by the Breast Cancer Cell ERa High Content Fluorescence Imaging Degradation Assay of Example 901. ER-alpha MCF7 HCS EC50 (μM) values in Tables 1a and 1b were measured by the in vitro cell proliferation assays described in Examples 902 and 903. The rat uterine wet weight assays of Examples 906 and 907 allow rapid determination of compound antagonist activity in an ER responsive tissue (immature rat uterus) while competing against the native ER ligand estradiol, i.e. antagonist mode (Ashby, J.; et al (1997) Regulatory toxicology and pharmacology: RTP, 25 (3):226-31). Exemplary Formula I, II, and III compounds in Tables 1a and 1b have the following structures, corresponding names (ChemBioDraw, Version 12.0.2, CambridgeSoft Corp., Cambridge Mass.), and biological activity. Where more than one name is associated with a Formula I, II, and III compound or intermediate, the chemical structure shall define the compound.
MCF7 breast cancer cells were seeded on day 1 at a density of 10,000 cells per well in 384 well poly-lysine coated tissue culture plate (Greiner # T-3101-4), in 50 μL/well RPMI (phenol red free), 10% FBS (Charcoal stripped), containing L-glutamine. On day 2, compounds were prepared at 2 compound source concentrations: 100 μM and 1 μM (ultimately to give 2 overlapping titration curves), in a Labcyte low dead volume plate, 10 μL/well, and 10 μL of DMSO in designated wells for backfill, and 5 μM Fulvestrant (control compound) in designated wells. Compounds and controls were dispensed using a Labcyte Echo acoustic dispenser to dispense compounds with a predefined serial dilution (1.8×, 10 point, in duplicate) and appropriate backfill and control compounds (final total volume transferred was 417.5 nL and compound dispense volume ranges from 2.5 nL to 417.5 nL; 0.84% DMSO (v/v) final), ultimately producing a concentration range from 0.05 nM to 835 nM. Cell plates were incubated at 37° C., for 4 hours. Fixation and permeabilization were carried out using a Biotek EL406 plate washer and dispenser as follows. Cells were fixed by addition of 15 μL of 16% paraformaldehyde (Electron Microscopy Sciences #15710-S) directly to the 50 μL cell culture medium in each well using the peristaltic pump 5 μL cassette on a Biotek EL406 (final concentration of formaldehyde was 3.7% w/v). Samples were incubated 30 minutes. Well contents was aspirated and 50 μL/well of Phosphate Buffered Saline (PBS) containing 0.5% w/v bovine serum albumen, 0.5% v/v Triton X-100 (Antibody Dilution Buffer) was added to each well. Samples were incubated for 30 minutes. Well contents were aspirated and washed 3 times with 100 μL/well of PBS. Immunofluorescence staining of estrogen receptor alpha (ESR1) was carried out using a Biotek EL406 plate washer and dispenser as follows. The well supernatant was aspirated from the wells and 25 μL/well of anti-ESR1 mAb (F10) (Santa Cruz sc-8002) diluted 1:1000 in Antibody Dilution Buffer was dispensed. Samples were incubated for 2 hours at room temperature. Samples were washed 4 times with 100 μL/well of PBS. 25 uL (microliters)/well of secondary antibody solution (Alexafluor 488 conjugate anti-mouse IgG (LifeTechnologies # A21202) diluted 1:1000 and Hoechst 33342 1 μg/ml diluted in Antibody Dilution Buffer) were dispensed into each well. Samples were incubated for 2 hours at room temperature. Samples were washed 3 times with 100 μL/well of PBS using a Biotek EL406. Quantitative fluorescence imaging of ESR1 was carried out using a Cellomics Arrayscan V (Thermo). […]

In the case of `C[C@@H]1Cn2c(cc3ccccc32)[C@@H](c2c(F)cc(NC3CN(CCCF)C3)cc2F)N1CC(C)(C)F` [Example 127, N-(3,5-Difluoro-4-((1R,3R)-2-(2-fluoro-2-methylpropyl)-3-methyl-1,2,3,4-tetrahydropyrazino[1,2-a]indol-1-yl)phenyl)-1-(3-fluoropropyl)azetidin-3-amine], the “ER-alpha MCF7HCS Sinf” value is reported as −100%.

As for `C[C@@H]1Cc2sc3ccccc3c2[C@@H](c2ccc(OCCN3CC(CF)C3)cc2)N1CC(C)(C)F` [Example 128, (1R,3R)-2-(2-fluoro-2-methylpropyl)-1-(4-(2-(3-(fluoromethyl)azetidin-1-yl)ethoxy)phenyl)-3-methyl-1,2,3,4-tetrahydrobenzo[4,5]thieno[3,2-c]pyridine], the “ER-alpha MCF7HCS Sinf” value is −101%.

Regarding `C[C@H]1Cc2sc3ccccc3c2[C@H](c2ccc(OCCN3CC(CF)C3)cc2)N1CC(C)(C)F` [Example 129, (1S,3S)-2-(2-Fluoro-2-methylpropyl)-1-(4-(2-(3-(fluoromethyl)azetidin-1-yl)ethoxy)phenyl)-3-methyl-1,2,3,4-tetrahydrobenzo[4,5]thieno[3,2-c]pyridine], the “ER-alpha MCF7HCS Sinf” value was −43.8%.

In the case of `C[C@H]1Cc2sc3ccccc3c2[C@@H](c2ccc(OCCN3CC(CF)C3)cc2)N1CC(C)(C)F` [Example 131, (1R,3S)-2-(2-fluoro-2-methylpropyl)-1-(4-(2-(3-(fluoromethyl)azetidin-1-yl)ethoxy)phenyl)-3-methyl-1,2,3,4-tetrahydrobenzo[4,5]thieno[3,2-c]pyridine], the “ER-alpha MCF7HCS Sinf” value is recorded as −99%.

With `C[C@@H]1Cc2c([nH]c3cccnc23)[C@@H](c2c(F)cc(OC3CN(CCCF)C3)cc2F)N1CC(C)(C)F` [Example 133, (6R,8R)-6-{2,6-Difluoro-4-[2-(3-fluoromethyl-azetidin-1-yl)-ethoxy]-phenyl}-7-(2-fluoro-2-methyl-propyl)-8-methyl-6,7,8,9-tetrahydro-5H-dipyrido[3,2-b;4′,3′-d]pyrrole], the “ER-alpha MCF7HCS Sinf” value is −94.5%.

Regarding `C[C@@H]1Cc2c([nH]c3ccccc23)[C@]2(CCc3nc(OCCN4CC(CF)C4)ccc32)N1CC(F)(F)F` [Example 134, (3′R,5R)-2-(2-(3-(fluoromethyl)azetidin-1-yl)ethoxy)-3′-methyl-2′-(2,2,2-trifluoroethyl)-2′,3′,4′,6,7,9′-hexahydrospiro [cyclopenta[b]pyridine-5,1′-pyrido [3,4-b]indole]], the “ER-alpha MCF7HCS Sinf” value is −96.5%.

Regarding `C[C@@H]1Cc2c([nH]c3ccccc23)[C@@](C)(c2ccc(OCCN3CC(CF)C3)cc2)N1CC(C)(C)F` [Example 135, (1R,3R)-2-(2-Fluoro-2-methylpropyl)-1-(4-(2-(3-(fluoromethyl)azetidin-1-yl)ethoxy)phenyl)-1,3-dimethyl-2,3,4,9-tetrahydro-1H-pyrido[3,4-b]indole], the “ER-alpha MCF7HCS Sinf” value is on record as −95%.

In the case of `C[C@@H]1Cc2[nH]c3ccccc3c2[C@@H](c2c(F)cc(OCCN3CC(CF)C3)cc2F)N1CC(C)(C)F` [Example 137, (1S,3R)-1-(2,6-difluoro-4-(2-(3-(fluoromethyl)azetidin-1-yl)ethoxy)phenyl)-2-(2-fluoro-2-methylpropyl)-3-methyl-2,3,4,5-tetrahydro-1H-pyrido[4,3-b]indole], the “ER-alpha MCF7HCS Sinf” value is recorded as −94.2%.

For `CC(C)(F)CN1[C@H](c2c(F)cc(OCCN3CC(CF)C3)cc2F)c2[nH]c3ccccc3c2[C@H]2CC[C@H]21` [Example 138, (2aR,4R,9cR)-4-(2,6-difluoro-4-(2-(3-(fluoromethyl)azetidin-1-yl)ethoxy)phenyl)-3-(2-fluoro-2-methylpropyl)-2,2a,3,4,5,9c-hexahydro-1H-cyclobuta[5,6]pyrido[3,4-b]indole], the “ER-alpha MCF7HCS Sinf” value was −68%.

In the case of `C[C@@H]1Cc2c([nH]c3ccccc23)[C@]2(Cc3ccc(OC4CN(CCCF)C4)cc3C2)N1CC(F)(F)F` [Example 140], the “ER-alpha MCF7HCS Sinf” value is on record as −15%.

With `C[C@@H]1Cn2c(cc3ccccc32)[C@@H](c2c(F)cc(OC3CN(CCCF)C3)cc2F)N1CC(F)(F)F` [Example 141, (1R,3R)-1-(2,6-difluoro-4-((1-(3-fluoropropyl)azetidin-3-yl)oxy)phenyl)-3-methyl-2-(2,2,2-trifluoroethyl)-1,2,3,4-tetrahydropyrazino[1,2-a]indole], the “ER-alpha MCF7HCS Sinf” value is listed as −103%.

Turning to `CC1(C)CN(CC(F)(F)CO)[C@H](c2c(F)cc(NC3CN(CCCF)C3)cc2F)c2[nH]c3ccccc3c21` [Example 142, (R)-3-(1-(2,6-difluoro-4-(1-(3-fluoropropyl)azetidin-3-ylamino)phenyl)-4,4-dimethyl-3,4-dihydro-1H-pyrido[3,4-b]indol-2(9H)-yl)-2,2-difluoropropan-1-ol], the “ER-alpha MCF7HCS Sinf” value is −96%.

Turning to `C[C@@H]1Cn2c(cc3ccccc32)[C@H](c2c(F)cc(NC3CN(CCCF)C3)cc2F)N1CC(F)(F)F` [Example 145, N-(3,5-Difluoro-4-((1S,3R)-3-methyl-2-(2,2,2-trifluoroethyl)-1,2,3,4-tetrahydropyrazino[1,2-a]indol-1-yl)phenyl)-1-(3-fluoropropyl)azetidin-3-amine], the “ER-alpha MCF7HCS Sinf” value is reported as −87%.

As for `C[C@@H]1Cn2c(cc3ccccc32)[C@@H](c2c(F)cc(NC3CN(CCCF)C3)cc2F)N1CC(F)(F)F` [Example 146, N-(3,5-Difluoro-4-((1R,3R)-3-methyl-2-(2,2,2-trifluoroethyl)-1,2,3,4-tetrahydropyrazino[1,2-a]indol-1-yl)phenyl)-1-(3-fluoropropyl)azetidin-3-amine], the “ER-alpha MCF7HCS Sinf” value was −100%.

As for `CC1Cc2[nH]c3ccccc3c2C(c2c(F)cc(NC3CN(CCCF)C3)cc2F)N1CCF` (stereo not shown) [Example 149, (□)-N-(3,5-difluoro-4-(2-(2-fluoroethyl)-3-methyl-2,3,4,5-tetrahydro-1H-pyrido[4,3-b]indol-1-yl)phenyl)-1-(3-fluoropropyl) azetidin-3-amine], the “ER-alpha MCF7HCS Sinf” value is −75%.

As to `C[C@@H]1Cc2[nH]c3ccccc3c2[C@@H](c2c(F)cc(NC3CN(CCCF)C3)cc2F)N1CC(F)F` [Example 150, N-(4-((1S,3R)-2-(2,2-difluoroethyl)-3-methyl-2,3,4,5-tetrahydro-1H-pyrido[4,3-b]indol-1-yl)-3,5-difluorophenyl)-1-(3-fluoropropyl) azetidin-3-amine], the “ER-alpha MCF7HCS Sinf” value was −99.4%.
